Here are results for one compound from patent publication US20260034121A1, “COMPOSITIONS AND METHODS FOR ALPHA-SYNUCLEIN FIBRIL GROWTH INHIBITION” (Washington University, priority 2024, published 2026).

Molecules are shown by their SMILES.

This assay has as its target T1, aSyn fibril growth (in vitro aSyn fibrils) (Homo sapiens, UniProt P37840).
T1 construct: made in house; host or cells: E. coli BL21-CodonPlus (DE3)-RIL, pRK172 plasmid
Briefly: FlAsH fluorescence fibril growth assay with in vitro assembled aSyn fibril seeds. It is filed as biochemical. An excerpt:
Inhibition of fibril growth by small molecule compounds is likely to be mediated primarily by binding interactions with either monomer, fibrils, or both. However, secondary nucleation may occur and contribute to fibril growth under some conditions, and compounds may affect growth through interaction with oligomeric intermediates to inhibit conversion to fibrils. In one proposed mechanism, a compound binds to the end surface of fibrils and interferes with the binding of the new monomer required to extend the seed or fibril (FIG. 1). Since binding will deplete the free concentration of the inhibitor, measured IC50 values will be proportional to the concentration of the binding target (fibril seeds) and proportional to the concentration of monomer, with which the inhibitor competes for binding.
The fibril growth assay was performed similarly to previously published methods. […] Maximum inhibition is calculated as (Intensity100μM−Intensity0μM)/Intensity0μM×100% where Intensity100μM and Intensity0μM is the intensity at 100 μM of compound and intensity with no compound in the presence of fibrils and monomers.

Take `CCOC(=O)C1CCN(Cc2cc(OC)c(O)c(OC)c2)CC1` [Compound 1, ethyl 1-[(4-hydroxy-3,5-dimethoxyphenyl)methyl]piperidine-4-carboxylate]: the inhibition at 100 µM (at 100 μM compound versus no compound, read-out: Max Inhibition [%] [mean ± std]) came out at 79%. Further, the IC50 (read-out: IC50 [95% Cl] [μM] [mean ± std], 1 μM fibril seeds, 3 μM C2-aSyn monomer, 3-hour incubation) is 18 µM.

A word on the inhibition: it is how much of the control response was suppressed. Usually IC50 stands for the concentration needed to halve the response being measured.
